Data published in patent publication US20050197364A1, “Amide compounds as ion channel ligands and uses thereof” (priority 2003, published 2005).

Test system: VR1 receptor
Assay: High throughput calcium imaging assay (Fura2, Flex Station) of VR1 antagonists, pH 5.1 stimulus
Assay type: cell-based
Conditions: 1 uM compound, inhibition of calcium ion influx induced by capsaicin stimulation
Experimental: Therefore the functional activity of compounds at the VR1 receptor may be determined by measuring changes in intracellular calcium levels in 293 cells expressing capsaicin-insensitive VR1 receptor variants. A dual wavelength ratiometric dye, Fura2, was used as an indicator of relative levels of calcium ions in a 96 well format using a bench top scanning fluorometer with integrated fluidics and temperature control (Flex Station, Molecular Devices).
293 cells were grown on PDL coated 96-well black-walled plates, in the presence of a DMEM medium containing 5% Penstrep, 5% Glutamax, 200 ug/mL Hygromycin, 5 μg/mL Blasticide and 10% heat inactivated FBS. Prior to assay, the cells were loaded with 5 μg/mL Fura2 in normal saline solution at 37° C. for 40 minutes. Cells were then washed with normal saline to remove the dye.
The assay consists of two stages; a pre-treatment phase followed by a treatment phase.
50 μl of a compound solution was added to the cells (Pre-treatment). Immediately following, 50 μl of the test compound in a saline solution at pH 5.1 was added. Fura2 was excited at 340 and 380 nM to indicate relative calcium concentration. Changes in wavelength measurements were made throughout the course of the experiment in 4 second intervals over a period of 3 minutes. Responses were measured as peak fluorescence ratio after test compound addition minus baseline fluorescence ratio prior to pre-treatment and were calculated using SoftMaxPro softwareData were expressed as percentage inhibition calculated using Excel as follows: [formula]

SMILES | % Inhibition @ 1 uM | % Inhibition @ 1 uM (1 µM)
O=C(Nc1ccccc1)c1ccc(-c2ncccc2Cl)cc1 [Compound 3] | + (compound exhibited 0-25% inhibition of calcium ion influx induced by capsaicin stimulation) | –
COc1cccc(NC(=O)c2ccc(-c3ncccc3Cl)c(F)c2)c1 [Compound 119] | + (compound exhibited 0-25% inhibition of calcium ion influx induced by capsaicin stimulation) | –
O=C(Nc1ccc(F)cc1)c1ccc(-c2ncccc2Cl)cn1 [Compound 291] | + (“+” compound exhibited 0-25% inhibition of calcium ion influx induced by capsaicin stimulation.) | –
COc1cc(C(=O)Nc2ccc(C(F)(F)F)cc2)ccc1-c1ncccc1Cl [Compound 213] | + + (“+ +” compound exhibited 25-50% inhibition of calcium ion influx induced by capsaicin stimulation.) | –
O=C(Nc1cc[nH]n1)c1ccc(-c2ncccc2Cl)cc1 [Compound 9] | + (compound exhibited 0-25% inhibition of calcium ion influx induced by capsaicin stimulation) | –
CCCCc1ccc(NC(=O)c2ccc(-c3ncccc3Cl)cn2)cc1 [Compound 302] | + + + (“+ + +” compound exhibited 50-75% inhibition of calcium ion influx induced by capsaicin stimulation.) | –
CCC1c2ccccc2-c2cc(NC(=O)c3ccc(-c4ncccc4Cl)cc3)ccc21 (stereo not drawn) [Compound 55] | + + (compound exhibited 25-50% inhibition of calcium ion influx induced by capsaicin stimulation) | –
COc1ccc(NC(=O)c2ccc(-c3ncccc3Cl)c(OC)c2)cc1 [Compound 190] | + (compound exhibited 0-25% inhibition of calcium ion influx induced by capsaicin stimulation) | –
Cc1cc(C)nc(NC(=O)c2ccc(-c3ncccc3Cl)c(F)c2)c1 [Compound 139] | + (compound exhibited 0-25% inhibition of calcium ion influx induced by capsaicin stimulation) | –
COc1cc(C(=O)Nc2ccc(F)c(F)c2)ccc1-c1ncccc1Cl [Compound 254] | + + + (“+ + +” compound exhibited 50-75% inhibition of calcium ion influx induced by capsaicin stimulation.) | –
COc1cc(C(=O)Nc2cccc(Cl)c2)ccc1-c1ncccc1Cl [Compound 193] | + (compound exhibited 0-25% inhibition of calcium ion influx induced by capsaicin stimulation) | –
O=C(Nc1cc[nH]n1)c1ccc(-c2ncccc2Cl)c(F)c1 [Compound 158] | + (compound exhibited 0-25% inhibition of calcium ion influx induced by capsaicin stimulation) | –
COc1cc(C(=O)Nc2ccncn2)ccc1-c1ncccc1Cl [Compound 225] | + + (“+ +” compound exhibited 25-50% inhibition of calcium ion influx induced by capsaicin stimulation.) | –
Cc1ccnc(NC(=O)c2ccc(-c3ncccc3Cl)c(F)c2)c1 [Compound 145] | + + + + (compound exhibited 75% or greater inhibition of calcium ion influx induced by capsaicin stimulation) | –
O=C(Nc1ccc(F)c(F)c1)c1ccc(-c2ncccc2Cl)cc1 [Compound 279] | + (“+” compound exhibited 0-25% inhibition of calcium ion influx induced by capsaicin stimulation.) | –
CC(C)c1cccc(NC(=O)c2ccc(-c3ncccc3Cl)cc2F)c1 [Compound 69] | + (compound exhibited 0-25% inhibition of calcium ion influx induced by capsaicin stimulation) | –
O=C(Nc1cccnc1Cl)c1ccc(-c2ncccc2Cl)cc1 [Compound 30] | + + (compound exhibited 25-50% inhibition of calcium ion influx induced by capsaicin stimulation) | –
COc1ccc(NC(=O)c2ccc(-c3ncccc3Cl)c(OC)c2)cn1 [Compound 230] | + + (“+ +” compound exhibited 25-50% inhibition of calcium ion influx induced by capsaicin stimulation.) | –
O=C(Nc1nccs1)c1ccc(-c2ncccc2Cl)cc1 [Compound 38] | + (compound exhibited 0-25% inhibition of calcium ion influx induced by capsaicin stimulation) | –
COc1cc(C(=O)Nc2cccnc2)ccc1-c1ncccc1Cl [Compound 219] | + (“+” compound exhibited 0-25% inhibition of calcium ion influx induced by capsaicin stimulation.) | –
O=C(Nc1cccnc1)c1ccc(-c2ncccc2Cl)cc1F [Compound 63] | + (compound exhibited 0-25% inhibition of calcium ion influx induced by capsaicin stimulation) | –
CCCCc1ccc(NC(=O)c2ccc(-c3ncccc3Cl)cc2)cc1 [Compound 26] | + + (compound exhibited 25-50% inhibition of calcium ion influx induced by capsaicin stimulation) | –
O=C(Nc1ccc2ccccc2c1)c1ccc(-c2ncccc2Cl)cc1 [Compound 57] | – | + + + + (compound exhibited 75% or greater inhibition of calcium ion influx induced by capsaicin stimulation)
CC(C)Oc1cccc(NC(=O)c2ccc(-c3ncccc3Cl)c(F)c2)c1 [Compound 177] | + (compound exhibited 0-25% inhibition of calcium ion influx induced by capsaicin stimulation) | –
CCCCc1ccc(NC(=O)c2ccc(-c3ncccc3Cl)c(F)c2)cc1 [Compound 127] | + + + + (compound exhibited 75% or greater inhibition of calcium ion influx induced by capsaicin stimulation) | –
O=C(Nc1ccc2[nH]ccc2c1)c1ccc(-c2ncccc2Cl)cc1 [Compound 4] | + + + + (compound exhibited 75% or greater inhibition of calcium ion influx induced by capsaicin stimulation) | –

SMILES | % Inhibition @ 1 uM | % Inhibition @ 1 uM (1 µM)
O=C(Nc1ccc(N2CCNCC2)cc1)c1ccc(-c2ncccc2Cl)cn1 [Compound 317] | + (“+” compound exhibited 0-25% inhibition of calcium ion influx induced by capsaicin stimulation.) | –
COc1cc(NC(=O)c2ccc(-c3ncccc3Cl)cc2)cc(C(F)(F)F)c1 [Compound 28] | + + (compound exhibited 25-50% inhibition of calcium ion influx induced by capsaicin stimulation) | –
COc1cc(C(=O)Nc2cccc(C(=O)O)c2)ccc1-c1ncccc1Cl [Compound 241] | + (“+” compound exhibited 0-25% inhibition of calcium ion influx induced by capsaicin stimulation.) | –
CN1CCCc2ccc(NC(=O)c3ccc(-c4ncccc4Cl)cc3)cc21 [Compound 287] | + (“+” compound exhibited 0-25% inhibition of calcium ion influx induced by capsaicin stimulation.) | –
O=C(Nc1ccccc1O)c1ccc(-c2ncccc2Cl)cc1F [Compound 67] | + (compound exhibited 0-25% inhibition of calcium ion influx induced by capsaicin stimulation) | –
O=C(Nc1ccc2ncccc2c1)c1ccc(-c2ncccc2Cl)c(F)c1 [Compound 156] | + + + + (compound exhibited 75% or greater inhibition of calcium ion influx induced by capsaicin stimulation) | –
COc1ccc(NC(=O)c2ccc(-c3ncccc3Cl)cc2F)cn1 [Compound 103] | + (compound exhibited 0-25% inhibition of calcium ion influx induced by capsaicin stimulation) | –
COc1cc(C(=O)Nc2ccc(Cl)c(C(F)(F)F)c2)ccc1-c1ncccc1Cl [Compound 214] | + (“+” compound exhibited 0-25% inhibition of calcium ion influx induced by capsaicin stimulation.) | –
CCOC(=O)c1cccc(NC(=O)c2ccc(-c3ncccc3Cl)cc2)c1 [Compound 269] | + (“+” compound exhibited 0-25% inhibition of calcium ion influx induced by capsaicin stimulation.) | –
Cc1cc(NC(=O)c2ccc(-c3ncccc3Cl)cn2)nc(C)n1 [Compound 326] | + (“+” compound exhibited 0-25% inhibition of calcium ion influx induced by capsaicin stimulation.) | –
O=C(Nc1ccc(F)c(F)c1)c1ccc(-c2ncccc2Cl)c(F)c1 [Compound 178] | + + + (compound exhibited 50-75% inhibition of calcium ion influx induced by capsaicin stimulation) | –
O=C(Nc1cccnc1)c1ccc(-c2ncccc2Cl)cc1 [Compound 8] | + + + + (compound exhibited 75% or greater inhibition of calcium ion influx induced by capsaicin stimulation) | –
O=C(Nc1ccc2ncccc2c1)c1ccc(-c2ncccc2Cl)cc1F [Compound 107] | + + (compound exhibited 25-50% inhibition of calcium ion influx induced by capsaicin stimulation) | –
COc1cc(C(=O)Nc2ccc(C)cc2C)ccc1-c1ncccc1Cl [Compound 206] | + + + + (“+ + + +” compound exhibited 75% or greater inhibition of calcium ion influx induced by capsaicin stimulation.) | –
COc1cccc(NC(=O)c2ccc(-c3ncccc3Cl)cc2)c1 [Compound 2] | + (compound exhibited 0-25% inhibition of calcium ion influx induced by capsaicin stimulation) | –
COc1cc(C(=O)Nc2ccc(Br)cn2)ccc1-c1ncccc1Cl [Compound 226] | + (“+” compound exhibited 0-25% inhibition of calcium ion influx induced by capsaicin stimulation.) | –
O=C(Nc1ccncc1)c1ccc(-c2ncccc2Cl)cn1 [Compound 313] | + + + (“+ + +” compound exhibited 50-75% inhibition of calcium ion influx induced by capsaicin stimulation.) | –
O=C(Nc1ccc2ccccc2c1)c1ccc(-c2ncccc2Cl)cc1 [Compound 54] | – | + (compound exhibited 0-25% inhibition of calcium ion influx induced by capsaicin stimulation)
O=C(Nc1ccc(OC(F)(F)F)cc1)c1ccc(-c2ncccc2Cl)c(F)c1 [Compound 175] | + + (compound exhibited 25-50% inhibition of calcium ion influx induced by capsaicin stimulation) | –
O=C(Nc1ccc(OC(F)(F)F)cc1)c1ccc(-c2ncccc2Cl)cn1 [Compound 343] | + (“+” compound exhibited 0-25% inhibition of calcium ion influx induced by capsaicin stimulation.) | –
COc1cc(C(=O)Nc2cccc(Cl)c2Cl)ccc1-c1ncccc1Cl [Compound 199] | + + + + (“+ + + +” compound exhibited 75% or greater inhibition of calcium ion influx induced by capsaicin stimulation.) | –
CCCc1ccccc1NC(=O)c1ccc(-c2ncccc2Cl)c(F)c1 [Compound 118] | + (compound exhibited 0-25% inhibition of calcium ion influx induced by capsaicin stimulation) | –
O=C(Nc1cccc(OC(F)(F)F)c1)c1ccc(-c2ncccc2Cl)cn1 [Compound 344] | + + (“+ +” compound exhibited 25-50% inhibition of calcium ion influx induced by capsaicin stimulation.) | –
N#Cc1cccc(NC(=O)c2ccc(-c3ncccc3Cl)cc2)c1 [Compound 22] | + (compound exhibited 0-25% inhibition of calcium ion influx induced by capsaicin stimulation) | –
Cc1cccnc1NC(=O)c1ccc(-c2ncccc2Cl)cc1F [Compound 95] | + (compound exhibited 0-25% inhibition of calcium ion influx induced by capsaicin stimulation) | –
